Reference: ChEMBL document CHEMBL2346578, “Substituted 1,6-diphenylnaphthalenes as FtsZ-targeting antibacterial agents” (2013)
Converted amounts (≈) assume the structure as drawn. The source made the active and inactive calls. The rule behind the calls is not given here.

Assays:
Staphylococcus aureus [1] = assay: microbe, parasite or virus in culture; type: functional; settings: ATCC 33591
Description: Antibacterial activity against methicillin-resistant Staphylococcus aureus ATCC 33591 assessed as growth inhibition by CLSI broth microdilution method

Enterococcus faecalis [2] = assay: Antibacterial activity against vancomycin-resistant Enterococcus faecalis ATCC 51575 assessed as growth inhibition by CLSI broth microdilution method; type: functional
Enterococcus faecalis [3] = assay: microbe, parasite or virus in culture; type: functional; settings: ATCC 19433
Description: Antibacterial activity against vancomycin-sensitive Enterococcus faecalis ATCC 19433 assessed as growth inhibition by CLSI broth microdilution method

Staphylococcus aureus [4] = assay: Antibacterial activity against methicillin-sensitive Staphylococcus aureus 8325-4 assessed as growth inhibition by CLSI broth microdilution method; type: functional
[5] = biological target: T1, Cell division protein FtsZ (Staphylococcus aureus) (UniProt P0A031); assay: Stimulation of Staphylococcus aureus ATCC 33591 FtsZ self-polymerization expressed in Escherichia coli BL21 (DE3) at 40 ug/mL by light scattering assay
T1 sequence (whole entry): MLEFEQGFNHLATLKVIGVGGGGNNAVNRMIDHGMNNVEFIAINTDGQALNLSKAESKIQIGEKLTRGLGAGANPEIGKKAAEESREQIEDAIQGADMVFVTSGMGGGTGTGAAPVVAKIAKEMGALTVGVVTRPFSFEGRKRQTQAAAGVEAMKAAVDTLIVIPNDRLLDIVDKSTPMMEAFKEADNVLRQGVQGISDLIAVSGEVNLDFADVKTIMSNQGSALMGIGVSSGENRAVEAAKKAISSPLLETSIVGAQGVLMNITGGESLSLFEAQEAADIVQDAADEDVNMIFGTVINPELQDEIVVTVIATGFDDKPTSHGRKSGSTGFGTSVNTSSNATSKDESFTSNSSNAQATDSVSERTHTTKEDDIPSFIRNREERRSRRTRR

[6] = biological target: Tubulin beta chain (Sus scrofa) (UniProt P02554); assay: Stimulation of porcine MAP-rich beta-tubulin polymerization at 25 ug/mL by light scattering assay
Sequence of Tubulin beta chain (Sus scrofa) (P02554 whole entry): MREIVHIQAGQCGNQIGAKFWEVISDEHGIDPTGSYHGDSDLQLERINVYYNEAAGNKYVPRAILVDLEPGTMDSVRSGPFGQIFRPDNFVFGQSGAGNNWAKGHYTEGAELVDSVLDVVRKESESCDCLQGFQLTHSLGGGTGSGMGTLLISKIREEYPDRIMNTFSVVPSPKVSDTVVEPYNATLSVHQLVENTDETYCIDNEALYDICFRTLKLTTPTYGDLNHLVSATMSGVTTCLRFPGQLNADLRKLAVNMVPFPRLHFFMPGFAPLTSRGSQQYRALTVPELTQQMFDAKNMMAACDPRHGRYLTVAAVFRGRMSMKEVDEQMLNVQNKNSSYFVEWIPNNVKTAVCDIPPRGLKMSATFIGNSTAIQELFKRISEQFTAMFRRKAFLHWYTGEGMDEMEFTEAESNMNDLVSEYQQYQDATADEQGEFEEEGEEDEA

[7] = biological target: Tubulin beta chain (Sus scrofa) (UniProt P02554); assay: Inhibition of porcine MAP-rich beta-tubulin polymerization at 10 ug/mL by light scattering assay
[8] = biological target: Tubulin beta chain (Sus scrofa) (UniProt P02554); assay: Stimulation of porcine MAP-rich beta-tubulin polymerization at 40 ug/mL by light scattering assay

| SMILES | MIC90 (Staphylococcus aureus [1]) [µg/mL] | MIC90 (Enterococcus faecalis [2]) [µg/mL] | MIC90 (Enterococcus faecalis [3]) [µg/mL] | MIC90 (Staphylococcus aureus [4]) [µg/mL] | Activity [5] | Activity [6] | inhibition [7] | Activity [8] |
| --- | --- | --- | --- | --- | --- | --- | --- | --- |
| C[n+]1cc2c3c(ccc2c2ccc4cc5c(cc4c21)OCO5)OCO3 [SANGUINARIUM] | 2 | 16 | 8 | 2 | – | – | – | – |
| CN(C)Cc1cccc(-c2ccc3c(-c4cccc(-c5ccccc5)c4)cccc3c2)c1 | 8 (≈ 19.3 µM) | 16 (≈ 38.7 µM) | 16 (≈ 38.7 µM) | 4 (≈ 9.67 µM) | – | – | – | – |
| CC(C)(C)c1ccc(-c2cccc3cc(-c4ccc(C(=O)O)cc4CN)ccc23)cc1 | > 64 | > 64 | > 64 | > 64 | – | – | – | – |
| CC(C)(C)c1ccc(-c2cccc3cc(-c4ccccc4CCN)ccc23)cc1 | 2 (≈ 5.27 µM) | 4 (≈ 10.5 µM) | 4 (≈ 10.5 µM) | 2 (≈ 5.27 µM) | Active | – | – | – |
| CC(=O)O[C@H]1C(=O)[C@@]2(C)[C@H]([C@H](OC(=O)c3ccccc3)[C@]3(O)C[C@H](OC(=O)[C@H](O)[C@@H](NC(=O)c4ccccc4)c4ccccc4)C(C)=C1C3(C)C)[C@]1(OC(C)=O)CO[C@@H]1C[C@@H]2O | – | – | – | – | – | Active | – | – |
| CNCc1cc(C(=O)OC)ccc1-c1ccc2c(-c3ccc(C(C)(C)C)cc3)cccc2c1 | 4 (≈ 9.14 µM) | 4 (≈ 9.14 µM) | 8 (≈ 18.3 µM) | 4 (≈ 9.14 µM) | – | – | – | – |
| CC(C)(C)c1ccc(-c2cccc3cc(-c4ccccc4N)ccc23)cc1 | > 64 | > 64 | > 64 | > 64 | – | – | – | – |
| CN[C@H](CC(C)C)C(=O)N[C@H]1C(=O)N[C@@H](CC(N)=O)C(=O)N[C@H]2C(=O)N[C@H]3C(=O)N[C@H](C(=O)N[C@H](C(=O)O)c4cc(O)cc(O)c4-c4cc3ccc4O)[C@H](O)c3ccc(c(Cl)c3)Oc3cc2cc(c3O[C@@H]2O[C@H](CO)[C@@H](O)[C@H](O)[C@H]2O[C@H]2C[C@](C)(N)[C@H](O)[C@H](C)O2)Oc2ccc(cc2Cl)[C@H]1O [VANCOMYCIN] | 2 (≈ 1.38 µM) | > 64 | 1 (≈ 0.69 µM) | 1 (≈ 0.69 µM) | inactive | – | – | – |
| Cc1onc(-c2ccccc2)c1C(=O)N[C@@H]1C(=O)N2[C@@H]1SC(C)(C)[C@@H]2C(=O)O [OXACILLIN] | > 64 | > 64 | 8 (≈ 19.9 µM) | 0.063 (≈ 0.157 µM) | – | – | – | – |
| COc1ccc2c(c[n+](C)c3c4cc5c(cc4ccc23)OCO5)c1OC [CHELERYTHRINE] | 4 | 32 | 32 | 4 | – | – | – | – |
| COC(=O)Nc1nc2cc(C(=O)c3cccs3)ccc2[nH]1 | – | – | – | – | – | – | Active | – |
| COC(=O)c1ccc(-c2ccc3c(-c4ccc(C(C)(C)C)cc4)cccc3c2)c(CN=C(N)N)c1 | 1 (≈ 2.15 µM) | 4 (≈ 8.59 µM) | 2 (≈ 4.3 µM) | 1 (≈ 2.15 µM) | – | – | – | – |
| CC(C)(C)c1ccc(-c2cccc3cc(-c4ccccc4CN=C(N)N)ccc23)cc1 | 1 (≈ 2.45 µM) | 2 (≈ 4.91 µM) | 2 (≈ 4.91 µM) | 1 (≈ 2.45 µM) | – | – | – | – |
| CN(C)[C@@H]1C(O)=C(C(N)=O)C(=O)[C@@]2(O)C(O)=C3C(=O)c4c(O)cccc4[C@@](C)(O)[C@H]3C[C@@H]12 [TETRACYCLINE] | 64 (≈ 144 µM) | > 64 | 0.5 (≈ 1.13 µM) | 0.063 (≈ 0.142 µM) | – | – | – | – |
| Cc1ccccc1-c1ccc2c(-c3ccc(C(C)(C)C)cc3)cccc2c1 | > 64 | > 64 | > 64 | > 64 | – | – | – | – |
| C[N+](C)(C)c1ccc(-c2ccc3c(-c4cccc(-c5ccccc5)c4)cccc3c2)cc1.[I-] | 1 | 2 | 2 | 1 | – | – | – | – |
| CC[C@H]1OC(=O)[C@H](C)[C@@H](O[C@H]2C[C@@](C)(OC)[C@@H](O)[C@H](C)O2)[C@H](C)[C@@H](O[C@@H]2O[C@H](C)C[C@H](N(C)C)[C@H]2O)[C@](C)(O)C[C@@H](C)C(=O)[C@H](C)[C@@H](O)[C@]1(C)O [ERYTHROMYCIN] | > 64 | > 64 | 1 (≈ 1.36 µM) | 0.13 (≈ 0.177 µM) | – | – | – | – |
| C[N+](C)(C)c1cccc(-c2ccc3c(-c4ccc(F)cc4)cccc3c2)c1.[I-] | 4 | 8 | 8 | 1 | – | – | – | – |

| SMILES | MIC90 (Staphylococcus aureus [1]) [µg/mL] | MIC90 (Enterococcus faecalis [2]) [µg/mL] | MIC90 (Enterococcus faecalis [3]) [µg/mL] | MIC90 (Staphylococcus aureus [4]) [µg/mL] | Activity [5] | Activity [6] | inhibition [7] | Activity [8] |
| --- | --- | --- | --- | --- | --- | --- | --- | --- |
| COC(=O)c1ccc(-c2ccc3c(-c4ccc(C(C)(C)C)cc4)cccc3c2)c(CN(C)C)c1 | > 64 | > 64 | > 64 | > 64 | – | – | – | – |
| NCc1cccc(-c2ccc3c(-c4cccc(-c5ccccc5)c4)cccc3c2)c1 | 4 (≈ 10.4 µM) | 8 (≈ 20.8 µM) | 4 (≈ 10.4 µM) | 2 (≈ 5.19 µM) | – | – | – | – |
| CCC[C@@H]1C[C@@H](C(=O)N[C@@H]([C@H]2O[C@H](SC)[C@H](O)[C@@H](O)[C@H]2O)[C@H](C)Cl)N(C)C1 [CLINDAMYCIN] | > 64 | > 64 | 2 (≈ 4.71 µM) | 0.031 (≈ 0.0729 µM) | – | – | – | – |
| C[N+](C)(C)Cc1cccc(-c2ccc3c(-c4cccc(-c5ccccc5)c4)cccc3c2)c1.[I-] | 1 | 4 | 4 | 0.5 | – | – | – | – |
| CC(C)(C)c1ccc(-c2cccc3cc(-c4ccc([N+](C)(C)C)cc4)ccc23)cc1.[I-] | 2 | 4 | 4 | 1 | – | – | – | – |
| C[N+](C)(C)c1cccc(-c2ccc3c(-c4cccc(-c5ccccc5)c4)cccc3c2)c1.[I-] | 1 | 2 | 2 | 1 | – | – | – | – |
| C[N+](C)(C)c1ccc(-c2ccc3c(-c4ccc(F)cc4)cccc3c2)cc1.[I-] | 4 | 4 | 4 | 4 | – | – | – | – |
| CC(C)(C)c1ccc(-c2cccc3cc(-c4ccccc4C[N+](C)(C)C)ccc23)cc1.[I-] | 0.5 | 4 | 4 | 0.5 | Active | – | – | inactive |
| CC(C)(C)c1ccc(-c2cccc3cc(-c4cccc(N)c4)ccc23)cc1 | > 64 | > 64 | > 64 | > 64 | – | – | – | – |
| CNCc1ccccc1-c1ccc2c(-c3ccc(C(C)(C)C)cc3)cccc2c1 | 2 (≈ 5.27 µM) | 2 (≈ 5.27 µM) | 2 (≈ 5.27 µM) | 2 (≈ 5.27 µM) | – | – | – | – |
| CN(C)Cc1ccccc1-c1ccc2c(-c3ccc(C(C)(C)C)cc3)cccc2c1 | > 64 | > 64 | > 64 | 32 (≈ 81.3 µM) | – | – | – | – |
| COC(=O)c1ccc(-c2ccc3c(-c4ccc(C(C)(C)C)cc4)cccc3c2)c(CN)c1 | 2 (≈ 4.72 µM) | 16 (≈ 37.8 µM) | 16 (≈ 37.8 µM) | 2 (≈ 4.72 µM) | – | – | – | – |
| C[N+](C)(C)c1cccc(-c2ccc3c(-c4ccc(-c5ccccc5)cc4)cccc3c2)c1.[I-] | 1 | 4 | 2 | 0.5 | – | – | – | – |
| C[N+](C)(C)c1cccc(-c2ccc3c(-c4ccc(C(F)(F)F)cc4)cccc3c2)c1.[I-] | 4 | 8 | 8 | 1 | – | – | – | – |
| CC(C)(C)c1ccc(-c2cccc3cc(-c4cccc([N+](C)(C)C)c4)ccc23)cc1.[I-] | 1 | 2 | 2 | 0.5 | – | – | – | – |
| C[N+](C)(C)c1ccc(-c2ccc3c(-c4ccc(-c5ccccc5)cc4)cccc3c2)cc1.[I-] | 1 | 2 | 2 | 1 | – | – | – | – |
| COC(=O)c1ccc(-c2ccc3c(-c4ccc(C(C)(C)C)cc4)cccc3c2)c(C[N+](C)(C)C)c1.[I-] | 2 | 8 | 4 | 1 | – | – | – | – |
